Laboratory results published in patent publication US20080188483A1, “Compounds and Compositions as Protein Kinase Inhibitors” (IRM LLC, priority 2006, published 2008).

Key:
[1] = target: T1, E255V Bcr-abl (Ba/F3 cells) (Homo sapiens, UniProt P00519, E255V); test: Proliferation of Ba/F3 cells expressing mutant Bcr-abl E255V; type: cell-based
T1 construct: expressed in transfected cells; host or cells: Ba/F3; the other entry of the earlier key: BCR (P11274, Breakpoint cluster region protein)
Protocol: (§1) 2D-p210 cells are plated into 96 well TC plates at a density of 15,000 cells per well. 50 μL of two fold serial dilutions of the test compound (Cmax is 40 μM) are added to each well (STI571 is included as a positive control). After incubating the cells for 48 hours at 37° C., 5% CO2, 15 μL of MTT (Promega) is added to each well and the cells are incubated for an additional 5 hours. The optical density at 570 nm is quantified spectrophotometrically and IC50 values, the concentration of compound required for 50% inhibition, determined from a dose response curve.
(§2) Compounds of the invention are tested for their antiproliferative effect on Ba/F3 cells expressing either wild type or the mutant forms of BCR-Abl (G250E, E255V, T315I, F317L, M351T) that confers resistance or diminished sensitivity to STI571. The antiproliferative effect of these compounds on the mutant-BCR-Abl expressing cells and on the non transformed cells were tested at 10, 3.3, 1.1 and 0.37 μM as described above (in media lacking IL3). The IC50 values of the compounds lacking toxicity on the untransformed cells were determined from the dose response curves obtained as describe above.

[2] = target: T2, BMX (Homo sapiens, UniProt P51813); test: Upstate KinaseProfiler radio-enzymatic filter binding assay; type: biochemical; details: at a concentration of 10 μM; read-out: percentage inhibition of BMX
T2 construct: purchased Upstate
T2 sequence (P51813 whole entry): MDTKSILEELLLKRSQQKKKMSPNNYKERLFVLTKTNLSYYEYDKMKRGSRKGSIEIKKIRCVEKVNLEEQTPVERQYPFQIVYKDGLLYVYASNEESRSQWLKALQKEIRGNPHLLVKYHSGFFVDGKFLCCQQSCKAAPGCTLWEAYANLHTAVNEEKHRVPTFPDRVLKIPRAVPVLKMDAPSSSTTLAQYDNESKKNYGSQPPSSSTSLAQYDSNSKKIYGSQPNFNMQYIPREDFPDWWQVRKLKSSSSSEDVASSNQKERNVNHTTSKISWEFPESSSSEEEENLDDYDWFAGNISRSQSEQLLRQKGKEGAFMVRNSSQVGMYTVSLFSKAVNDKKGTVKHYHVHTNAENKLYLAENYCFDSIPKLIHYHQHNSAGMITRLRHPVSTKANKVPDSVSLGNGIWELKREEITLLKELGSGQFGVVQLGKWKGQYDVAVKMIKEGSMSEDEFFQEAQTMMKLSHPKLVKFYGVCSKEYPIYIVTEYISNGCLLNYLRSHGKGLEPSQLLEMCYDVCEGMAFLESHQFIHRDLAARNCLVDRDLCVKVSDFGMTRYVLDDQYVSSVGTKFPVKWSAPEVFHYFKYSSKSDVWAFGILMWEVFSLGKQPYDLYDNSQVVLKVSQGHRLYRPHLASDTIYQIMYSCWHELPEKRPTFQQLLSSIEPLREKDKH
Protocol: Compounds of the invention are assessed for their ability to inhibit individual members of a panel of kinases (a partial, non-limiting list of kinases includes: Abl, BMX, BTK, CHK2, c-RAF, CSK, c-SRC, Fes, FGFR3, Flt3, IKKα, IKKβ, JNK2α2, Lck, Met, MKK4, MKK6, MST2, NEK2, p70S6K, PDGFRβ, PKA, PKBα, PKD2, Rsk1, SAPK2α, SAPK2β, SAPK3, SGK, Tie2 and/or TrkB. The compounds are tested in duplicates at a final concentration of 10 μM following this generic protocol. Note that the kinase buffer composition and the substrates vary for the different kinases included in the “Upstate KinaseProfiler™” panel. Kinase buffer (2.5 μL, 10×—containing MnCl2 when required), active kinase (0.001-0.01 Units; 2.5 μL), specific or Poly(Glu4-Tyr) peptide (5-500 μM or 0.01 mg/ml) in kinase buffer and kinase buffer (50 μM; 5 μL) are mixed in an eppendorf on ice. A Mg/ATP mix (10 μL; 67.5 (or 33.75) mM MgCl2, 450 (or 225) μM ATP and 1 μCi/μl [γ-^32P]-ATP (3000 Ci/mmol)) is added and the reaction is incubated at about 30° C. for about 10 minutes. The reaction mixture is spotted (20 μL) onto a 2 cm×2 cm P81 (phosphocellulose, for positively charged peptide substrates) or Whatman No. 1 (for Poly (Glu4-Tyr) peptide substrate) paper square. The assay squares are washed 4 times, for 5 minutes each, with 0.75% phosphoric acid and washed once with acetone for 5 minutes. The assay squares are transferred to a scintillation vial, 5 ml scintillation cocktail are added and ^32P incorporation (cpm) to the peptide substrate is quantified with a Beckman scintillation counter. Percentage inhibition is calculated for each reaction.

[3] = target: T3, M351T Bcr-abl (Ba/F3 cells) (Homo sapiens, UniProt P00519, M351T); test: Proliferation of Ba/F3 cells expressing mutant Bcr-abl M351T; type: cell-based
T3 construct: expressed in transfected cells; host or cells: Ba/F3; the other entry of the earlier key: BCR (P11274, Breakpoint cluster region protein)
Protocol: as §1, §2

[4] = target: T4, F317L Bcr-abl (Ba/F3 cells) (Homo sapiens, UniProt P00519, F317L); test: Proliferation of Ba/F3 cells expressing mutant Bcr-abl F317L; type: cell-based
T4 construct: expressed in transfected cells; host or cells: Ba/F3; the other entry of the earlier key: BCR (P11274, Breakpoint cluster region protein)
Protocol: as §1, §2

[5] = target: T5, PDGFRβ (Ba/F3-Tel-PDGFRβ) (Homo sapiens, UniProt P09619); test: PDGFRβ cellular assay (Ba/F3-Tel-PDGFRβ proliferation); type: cell-based; details: read-out: IC50 against PDGFRβ in the cellular assay
T5 construct: expressed in transfected cells; host or cells: Ba/F3; the other entry of the earlier key: ETV6 (P41212, Transcription factor ETV6)
T5 sequence (P09619 600-962 limits assumed): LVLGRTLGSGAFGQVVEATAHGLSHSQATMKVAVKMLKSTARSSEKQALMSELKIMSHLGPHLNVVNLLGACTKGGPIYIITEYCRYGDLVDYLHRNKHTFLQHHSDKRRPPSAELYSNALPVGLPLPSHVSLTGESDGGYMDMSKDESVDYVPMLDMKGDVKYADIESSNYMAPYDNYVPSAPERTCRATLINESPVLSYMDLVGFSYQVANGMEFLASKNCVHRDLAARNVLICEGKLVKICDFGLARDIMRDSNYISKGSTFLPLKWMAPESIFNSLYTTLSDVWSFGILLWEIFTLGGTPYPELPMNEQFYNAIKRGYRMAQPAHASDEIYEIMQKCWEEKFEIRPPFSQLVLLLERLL

[6] = target: T6, G250E Bcr-abl (Ba/F3 cells) (Homo sapiens, UniProt P00519, G250E); test: Proliferation of Ba/F3 cells expressing mutant Bcr-abl G250E; type: cell-based
T6 construct: expressed in transfected cells; host or cells: Ba/F3; the other entry of the earlier key: BCR (P11274, Breakpoint cluster region protein)
Protocol: as §1, §2

[7] = tested on: b-Raf (A375 cells, V599E mutation); test: b-Raf cellular assay (phosphorylation of MEK in A375 cells); type: cell-based; details: Homo sapiens, A-375, phospho-MEK
Protocol: Compounds of the invention are tested in A375 cells for their ability to inhibit phosphorylation of MEK. A375 cell line (ATCC) is derived from a human melanoma patient and it has a V599E mutation on the B-Raf gene. The levels of phosphorylated MEK are elevated due to the mutation of B-Raf. Sub-confluent to confluent A375 cells are incubated with compounds for 2 hours at 37° C. in serum free medium. Cells are then washed once with cold PBS and lysed with the lysis buffer containing 1% Triton X100. After centrifugation, the supernatants are subjected to SDS-PAGE, and then transferred to nitrocellulose membranes. The membranes are then subjected to western blotting with anti-phospho-MEK antibody (ser217/221) (Cell Signaling). The amount of phosphorylated MEK is monitored by the density of phospho-MEK bands on the nitrocellulose membranes.

Cc1cn(-c2cc(C(=O)Nc3ccc(C)c(Nc4nccn4-c4ncnc5[nH]ccc45)c3)cc(C(F)(F)F)c2)cn1 [Example 2, 3-(4-methyl-imidazol-1-yl)-N-{4-methyl-3-[1-(7H-pyrrolo[2,3-d]pyrimidin-4-yl)-1H-imidazol-2-ylamino]-phenyl}-5-trifluoromethyl-benzamide]
IC50 [1]: 43 nM | inhibition at 10 µM [2]: 99% | IC50 [3]: < 0.5 nM | IC50 [4]: < 0.5 nM | IC50 [5]: 4 nM | IC50 [6]: 56 nM | IC50 [7]: 32 nM
